Measurements published in paper PMC12267109, “The enzyme kinetics of branched‐chain fatty acid synthesis of metazoan fatty acid synthase” (Protein Science : A Publication of the Protein Society, 2025).

Legend:
[1] = biological target: T1, metazoan fatty acid synthase (mFAS), murine FAS (Mus musculus, UniProt P19096); experiment: NADPH consumption assay with purified mFAS; GC-MS of methyl-branched fatty acid products; format: biochemical
T1 construct: gene Fasn; full length mFAS

[2] = biological target: T1, metazoan fatty acid synthase (mFAS), murine FAS; experiment: NADPH consumption by purified mFAS, fluorescence; format: biochemical

T1 sequence (P19096 whole entry): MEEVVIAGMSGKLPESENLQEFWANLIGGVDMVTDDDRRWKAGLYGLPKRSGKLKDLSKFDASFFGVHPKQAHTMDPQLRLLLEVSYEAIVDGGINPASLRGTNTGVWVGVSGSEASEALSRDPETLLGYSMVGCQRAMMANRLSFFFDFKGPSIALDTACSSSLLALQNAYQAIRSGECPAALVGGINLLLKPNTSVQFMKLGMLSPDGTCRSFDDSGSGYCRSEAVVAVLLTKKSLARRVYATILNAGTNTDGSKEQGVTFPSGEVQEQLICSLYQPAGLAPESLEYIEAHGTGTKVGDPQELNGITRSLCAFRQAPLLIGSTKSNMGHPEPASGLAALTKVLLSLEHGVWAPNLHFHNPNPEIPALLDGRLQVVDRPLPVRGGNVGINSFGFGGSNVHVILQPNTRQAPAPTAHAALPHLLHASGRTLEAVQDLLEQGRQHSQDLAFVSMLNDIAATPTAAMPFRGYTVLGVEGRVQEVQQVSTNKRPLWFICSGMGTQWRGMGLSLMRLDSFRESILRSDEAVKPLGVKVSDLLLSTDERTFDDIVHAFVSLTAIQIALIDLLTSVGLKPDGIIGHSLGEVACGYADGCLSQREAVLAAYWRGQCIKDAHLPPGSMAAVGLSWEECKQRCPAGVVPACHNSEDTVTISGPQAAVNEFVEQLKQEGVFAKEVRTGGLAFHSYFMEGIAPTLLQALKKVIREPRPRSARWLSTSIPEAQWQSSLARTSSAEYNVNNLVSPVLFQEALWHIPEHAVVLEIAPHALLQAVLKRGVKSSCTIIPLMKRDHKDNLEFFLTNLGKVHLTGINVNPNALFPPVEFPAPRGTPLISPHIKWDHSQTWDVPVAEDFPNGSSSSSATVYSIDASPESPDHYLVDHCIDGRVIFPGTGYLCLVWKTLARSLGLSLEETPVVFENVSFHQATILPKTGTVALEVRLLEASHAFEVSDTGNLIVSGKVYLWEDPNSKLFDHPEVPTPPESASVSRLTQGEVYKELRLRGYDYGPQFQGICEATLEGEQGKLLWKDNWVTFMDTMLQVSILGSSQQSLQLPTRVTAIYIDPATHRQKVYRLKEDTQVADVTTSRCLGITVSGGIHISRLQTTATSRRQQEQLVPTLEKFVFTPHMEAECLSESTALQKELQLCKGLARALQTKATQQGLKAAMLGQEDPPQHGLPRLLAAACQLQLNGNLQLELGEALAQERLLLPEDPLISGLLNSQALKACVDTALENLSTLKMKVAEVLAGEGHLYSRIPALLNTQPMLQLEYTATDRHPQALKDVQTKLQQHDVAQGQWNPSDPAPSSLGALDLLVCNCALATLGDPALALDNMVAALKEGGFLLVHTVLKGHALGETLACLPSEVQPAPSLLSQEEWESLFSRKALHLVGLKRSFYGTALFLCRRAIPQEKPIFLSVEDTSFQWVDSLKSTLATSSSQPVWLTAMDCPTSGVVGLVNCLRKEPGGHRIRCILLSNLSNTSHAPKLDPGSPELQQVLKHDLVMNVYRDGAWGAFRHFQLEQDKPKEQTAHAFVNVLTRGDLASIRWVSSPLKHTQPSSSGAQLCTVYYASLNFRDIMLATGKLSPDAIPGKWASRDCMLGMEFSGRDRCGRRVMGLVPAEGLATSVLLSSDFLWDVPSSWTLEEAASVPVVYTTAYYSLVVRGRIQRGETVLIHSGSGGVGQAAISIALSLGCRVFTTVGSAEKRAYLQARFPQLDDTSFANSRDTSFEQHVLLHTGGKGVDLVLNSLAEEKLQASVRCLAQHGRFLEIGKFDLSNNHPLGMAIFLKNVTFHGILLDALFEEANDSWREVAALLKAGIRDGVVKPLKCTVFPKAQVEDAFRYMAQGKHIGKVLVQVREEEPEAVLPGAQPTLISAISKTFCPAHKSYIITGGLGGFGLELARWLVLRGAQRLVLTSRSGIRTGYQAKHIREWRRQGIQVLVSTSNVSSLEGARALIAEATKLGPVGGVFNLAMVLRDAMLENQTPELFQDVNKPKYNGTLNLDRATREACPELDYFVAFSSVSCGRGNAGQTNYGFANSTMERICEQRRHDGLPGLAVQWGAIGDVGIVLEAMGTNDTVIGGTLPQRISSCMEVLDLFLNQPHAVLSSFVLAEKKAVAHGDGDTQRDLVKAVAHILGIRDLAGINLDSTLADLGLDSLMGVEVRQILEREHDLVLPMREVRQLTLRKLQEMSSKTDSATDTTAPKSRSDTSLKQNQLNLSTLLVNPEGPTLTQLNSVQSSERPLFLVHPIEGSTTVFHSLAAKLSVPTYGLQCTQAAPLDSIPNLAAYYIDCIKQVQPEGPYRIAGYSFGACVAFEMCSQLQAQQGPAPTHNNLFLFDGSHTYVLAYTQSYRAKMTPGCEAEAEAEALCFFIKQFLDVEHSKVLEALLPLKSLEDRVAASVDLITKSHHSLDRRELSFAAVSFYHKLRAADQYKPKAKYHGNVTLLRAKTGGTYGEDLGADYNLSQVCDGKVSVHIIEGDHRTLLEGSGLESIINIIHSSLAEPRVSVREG

Row | Structure (SMILES) | NADPH consumption assay with purified mFAS; GC-MS of methyl-branched fatty acid [1] | NADPH consumption by purified mFAS, fluorescence [2]
1 | CC(C(=O)O)C(=O)SCCNC(=O)CCNC(=O)[C@H](O)C(C)(C)COP(=O)(O)OP(=O)(O)OC[C@H]1O[C@@H](n2cnc3c(N)ncnc32)[C@H](O)[C@@H]1OP(=O)(O)O (mixture of isomers) [methylmalonyl-CoA] | we observed increasing activity with increasing metmal‐CoA in the absence of starter substrates | 
2 | NC(=O)C1=CN([C@@H]2O[C@H](COP(=O)(O)OP(=O)(O)OC[C@H]3O[C@@H](n4cnc5c(N)ncnc54)[C@H](OP(=O)(O)O)[C@@H]3O)[C@@H](O)[C@H]2O)C=CC1 [NADPH] |  | (NADPH) consumption of the integrated β‐ketoacyl reductase and enoyl reductase domains
